Data taken from PubChem BioAssay AID1863 (Southern Research Specialized Biocontainment Screening …, 2009).

What follows are molecules tested on S. Typhimurium PhoP-regulated promoter GFP reporter, 4 h (assay: inhibitors of PhoP regulon expression, primary screen, Salmonella Typhimurium, GFP reporter (AID 1863)).

Point of comparison: `CCCCOc1ccc(Br)cc1CSC(=N)N`, IC50 89.9 µM. Against it:
- CC(=O)NC(c1ccc(C)cc1)c1cc([N+](=O)[O-])c2cccnc2c1O (stereo unspecified) — 2.4-fold lower, 36.8 µM
- CCC(C)NC(=O)c1cn(CC)c2cc(N3CCN(C)CC3)c(F)cc2c1=O (stereo unspecified) — 2.4-fold lower, 37.2 µM
- CCCCCCCCCCOC(=O)Cn1c(COc2ccccc2)[n+](C)c2ccccc21 — 5.1-fold lower, 17.8 µM
- CNc1cc(Cl)c2nonc2c1[N+](=O)[O-] — 2.4-fold lower, 37 µM
- CN1CCN(C(c2ccccn2)c2cc(Cl)c3cccnc3c2O)CC1 (stereo unspecified) — within 1.5-fold, 95.8 µM
- Nc1cc(Cl)c2nonc2c1[N+](=O)[O-] — 1.6-fold lower, 57.6 µM
- CCCCCCCSc1cc(OC)c(CCN(C)C)cc1OC — within 1.5-fold, 67.5 µM
- Cc1ccc(Nc2cc(C)nn2-c2nc(C)cc(=O)[nH]2)cc1 — 2.8-fold lower, 32.4 µM
- Cc1nc2c(=O)n(C)c(=O)nc-2n(C)n1 — 78-fold lower, 1.15 µM
- COc1ccc(Nc2cc(C)c3c(O)cccc3n2)cc1 — within 1.5-fold, 68.6 µM
- CCOc1ccc(NC(=O)c2ccc(NC(=O)c3cn4c5c(c(N6CCN(C)CC6)c(F)cc5c3=O)OCC4C)cc2)cc1 (stereo unspecified) — 31-fold lower, 2.93 µM
- CCc1ccc(S(=O)(=O)/N=C2/C=C(Sc3ncn[nH]3)C(=O)c3ccccc32)cc1 — within 1.5-fold, 99.4 µM
- Cc1cc(C(C)(C)CC(C)(C)C)ccc1OCCOCC[N+](C)(C)Cc1ccccc1 — 2.8-fold lower, 31.8 µM
- CCn1cc(C(=O)NCCCO)c(=O)c2cc(F)c(N3CCN(C)CC3)cc21 — 3.5-fold lower, 25.5 µM
- CCn1cc(C(=O)O)c(=O)c2cc(F)c(N3CCN(C(=S)NC(=O)c4cccc(C)c4)CC3)cc21 — 6.1-fold lower, 14.7 µM
- CC(=O)Oc1cc2cccc(OC(C)=O)c(=O)c2c(OC(C)=O)c1OC(C)=O — 1.9-fold lower, 46.7 µM
- CNc1nc(NCc2ccccc2)c2ccccc2n1 — 1.5-fold higher, 136 µM
- Oc1cccc(/C=N/Nc2ccc(Cl)nn2)c1O — 1.5-fold higher, 138 µM
- C[C@H]1COc2c(N3CCN(C)CC3)c(F)cc3c(=O)c(C(=O)O)cn1c23 — lower, < 0.23 µM
- O=C(N/N=C/c1cc(Cl)ccc1O)c1cccnc1 — 1.8-fold lower, 49.3 µM
- CCC(C)(C)c1ccc(OCCCC[n+]2ccc(C)cc2)c(C(C)(C)CC)c1 — within 1.5-fold, 66.9 µM
- CCn1cc(C(=O)O)c(=O)c2cc(F)c(N3CCN(C(=S)NC(=O)c4ccccc4)CC3)cc21 — 8.6-fold lower, 10.5 µM
- CCn1cc(C(=O)O)c(=O)c2cc(F)c(N3CCN(C(=S)NC(=O)c4ccccc4C)CC3)cc21 — 6.7-fold lower, 13.5 µM
- O=C(N/N=C/c1ccc([N+](=O)[O-])o1)c1ccc(O)cc1 — 2.7-fold lower, 33.3 µM
- CCCCCCCCCCCCCCCCn1cc[n+](CC(C)=O)c1 — 2.8-fold lower, 31.8 µM
- Nc1nonc1-n1nnc(C(=O)N/N=C/c2cc(Br)ccc2O)c1CSC1=NCCS1 — within 1.5-fold, 122 µM
- O=c1[nH]c2ccccc2n2c(=S)[nH]nc12 — 2.3-fold lower, 39.4 µM
- CCCCCCCSc1cc(OC)c(CCNC)cc1OC — 1.6-fold lower, 55.7 µM
- Nc1nonc1C(=O)N/N=C/c1cc(Br)ccc1O — 5.3-fold lower, 17.1 µM
- CCC(C)(C)c1ccc(OCCCC[n+]2ccccc2)c(C(C)(C)CC)c1 — 2.3-fold lower, 38.9 µM
- Cc1ccc(C(C[N+](=O)[O-])c2c(N)n(C)c(=O)n(C)c2=O)cc1 (stereo unspecified) — within 1.5-fold, 62.3 µM
- CCCCCCCCCCCCCCCC[n+]1cccc(C(=O)N(CC)CC)c1 — 3.6-fold lower, 25.3 µM
- O=[N+]([O-])c1ccc(Sc2nc3ccccc3o2)c([N+](=O)[O-])c1 — within 1.5-fold, 117 µM
- O=c1[nH]cc(F)c(=O)[nH]1 — 9.2-fold lower, 9.78 µM
- CCOC(=O)N1CCN(C(c2cccnc2)c2ccc3cccnc3c2O)CC1 (stereo unspecified) — within 1.5-fold, 122 µM
- CC(=O)NC(c1cccs1)c1cc([N+](=O)[O-])c2cccnc2c1O (stereo unspecified) — 2.3-fold lower, 38.9 µM
- Nc1ccc2c(c1)C(=O)C(=O)c1ccccc1-2 — 7.6-fold lower, 11.9 µM
- O=[N+]([O-])c1ccc(N/N=C/c2ccc[nH]2)cc1 — within 1.5-fold, 75 µM
- C=C1c2cccc(O)c2C(O)=C2C(=O)[C@]3(O)C(O)=C(C(N)=O)C(=O)[C@@H](N(C)C)[C@@H]3[C@@H](O)[C@H]12 — 64-fold lower, 1.41 µM
- CCc1ccc(NC(=O)C[n+]2cc(-c3ccc(C)cc3)n3c2CCC3)cc1 — within 1.5-fold, 106 µM
- Nc1nc2ccccc2n1CCOc1ccccc1Cl — 1.5-fold higher, 138 µM
- Nc1nc(F)nc2c1ncn2[C@@H]1O[C@H](CO)[C@@H](O)[C@H]1O — 3.2-fold lower, 27.8 µM
- N=c1n(CC(=O)c2ccc(Br)s2)c2ccccc2n1Cc1ccccc1 — within 1.5-fold, 68.3 µM
- CC(C(=O)NC1C=CS(=O)(=O)C1)N1C(=O)/C(=C/c2ccc(Cl)cc2)SC1=S (stereo unspecified) — within 1.5-fold, 72.2 µM
- O=C(N/N=C/c1ccc([N+](=O)[O-])s1)C(O)c1ccccc1 (stereo unspecified) — within 1.5-fold, 83.6 µM
- CCn1cc(C(=O)O)c(=O)c2cc(F)c(N3CCN(C(=O)Nc4ccccc4)CC3)cc21 — 2.8-fold lower, 32.1 µM
- CCCCCc1ccc(OCCOCCn2c[n+](C)c3ccccc32)c(CCCCC)c1 — 2.1-fold lower, 43.6 µM
- COc1c(N2CCN(C(=S)Nc3ccccc3F)C(C)C2)c(F)cc2c(=O)c(C(=O)O)cn(C3CC3)c12 (stereo unspecified) — 17-fold lower, 5.43 µM
- CCCCCCCCCCOC(=O)Cn1c(COc2ccc(Cl)cc2)[n+](C)c2ccccc21 — 4.6-fold lower, 19.5 µM
- O=C(NC(CO)C(O)c1ccc([N+](=O)[O-])cc1)C(Cl)Cl (stereo unspecified) — 9.3-fold lower, 9.67 µM
- C[C@H]1c2cccc(O)c2C(O)=C2C(=O)[C@]3(O)C(O)=C(C(N)=O)C(=O)[C@@H](N(C)C)C3[C@@H](O)C21 (stereo partly specified) — 17-fold lower, 5.2 µM
- C[CH2][Hg][S]c1ccccc1C(=O)O — 1.5-fold higher, 136 µM
- Nc1nc(N2CCN(C/C=C/c3ccccc3)CC2)nc2ccccc12 — 1.6-fold higher, 147 µM
- CN1CCN(C(c2ccc(Cl)cc2)c2cc(Cl)c3cccnc3c2O)CC1 (stereo unspecified) — 2-fold lower, 44.1 µM
- CCCCCCCCNC(C)C(O)c1ccc(SC(C)C)cc1 (stereo unspecified) — within 1.5-fold, 75.2 µM
